Test results taken from the supplement of paper PMC10290057.
Structures can show the parent of a compound that is named as a salt.

Assays:
HCT116 [1] = experiment: efficacy (fitted maximal change in viability relative to DMSO control); higher = less cytotoxic (negative = loss of viability); settings: 48 h
HCT116 [2] = experiment: AC50 cell viability (CellTiter-Glo); higher = less potent; settings: 48 h
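Wherever AC50 cell viability (CellTiter-Glo) is given: HCT116 colorectal carcinoma cells screened at five concentrations per compound, luminescent viability scaled between DMSO wells and empty wells on each plate, curves fitted per compound.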
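Wherever efficacy (fitted maximal change in viability relative to DMSO control) is given: Luminescence-based viability readout, five doses per compound, normalized against on-plate DMSO and empty-well controls, followed by dose-response curve fitting for every drug.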

SMILES	efficacy (HCT116 [1]) [%]	AC50 cell viability (HCT116 [2]) [µM]
Nc1nc(OCc2cc(Br)cs2)c2[nH]cnc2n1 [Lomeguatrib]	-56	18.6
NC(=O)N1CCC(CC(=O)N2CCC([C@H]3c4ncc(Br)cc4CCc4cc(Cl)cc(Br)c43)CC2)CC1 [Lonafarnib]	-100	18.6
CN(C)C(=O)C(CCN1CCC(O)(c2ccc(Cl)cc2)CC1)(c1ccccc1)c1ccccc1 [Loperamide hydrochloride]	-98.7	18.6
CC1Oc2cc(cnc2N)-c2c(nn(C)c2C#N)CN(C)C(=O)c2ccc(F)cc21 (centres undefined) [Lorlatinib]	-46.2	14.8
C[C@H]1Oc2cc(cnc2N)-c2c(nn(C)c2C#N)CN(C)C(=O)c2ccc(F)cc21 [Lorlatinib]	-33.7	0.372
CCN(CC)CCNc1ccc(C)c2sc3ccccc3c(=O)c12 [Lucanthone]	-119	14.8
CNC(=O)c1cccc2cc(Oc3ccnc4cc(OCC5(N)CC5)c(OC)cc34)ccc12 [Lucitanib]	-96.6	14.8
COc1ccc2[nH]c3c(c2c1)CCN[C@]31CS[C@@H]2c3c(OC(C)=O)c(C)c4c(c3[C@H](COC1=O)N1[C@@H]2[C@H]2c3c(cc(C)c(OC)c3O)C[C@@H]([C@@H]1O)N2C)OCO4 [Lurbinectedin]	-72.4	0.00539
NC(=O)c1cccc2c(NC(CN3CCC3)c3ccc(Cl)c(C(F)(F)F)c3)ncnc12 (centres undefined) [M2698]	-116	10.5
CCCCOC(=O)N[S+](=O)([O-])c1sc(CC(C)C)cc1-c1ccc(Cn2ccnc2)cc1 [M-024]	-84.4	18.6
CN(C)c1ccc(C(=O)NCCCCCCC(=O)NO)cc1 [M-344]	-84.5	0.742
Cn1cc(/C=C/C(=O)c2cccc(F)c2)cc1/C=C/C(=O)NO [MC-1568]	-49.8	14.8
CC1(N2CCC(n3c([C@@H]4CCCNC4)nc4ccccc43)CC2)CCCCCCC1 [MCOPPB]	-82.3	9.34
OC(c1cc(C(F)(F)F)nc2c(C(F)(F)F)cccc12)C1CCCCN1 (centres undefined) [MEFLOQUINE]	-109	20.9
CCC[C@@H](C=O)NC(=O)[C@H](CC(C)C)NC(=O)[C@H](CC(C)C)NC(=O)OCc1ccccc1 [MG-115]	-93.3	0.661
CC(C)C[C@@H](C=O)NC(=O)[C@H](CC(C)C)NC(=O)[C@H](CC(C)C)NC(=O)OCc1ccccc1 [MG-132]	-89.4	0.468
CCCCCCCc1ccc(CCc2cccc(O)c2C(=O)O)cc1 [MG-149]	-42.3	18.6
Cn1cnc(-c2cc3nccc(Oc4ccc(NC(=S)NC(=O)Cc5ccccc5)cc4F)c3s2)c1 [MGCD-265]	-59.3	16.6
COCCOc1nc(-c2ccc(Cl)c(Cl)c2)n(-c2ccc(NC(=O)CCl)cc2)n1 [MI-2]	-63.7	18.6

SMILES	efficacy (HCT116 [1]) [%]	AC50 cell viability (HCT116 [2]) [µM]
Cc1c(CN2CCC(Nc3ncnc4sc(CC(F)(F)F)cc34)CC2)ccc2c1cc(C#N)n2Cc1cn[nH]c1 [MI-503]	-76	3.72
N#Cc1cc2cc(CN3CCC(Nc4ncnc5sc(CC(F)(F)F)cc45)CC3)c(O)cc2n1Cc1cn[nH]c1 [MI-538]	-111	13.2
CN1CCN(c2ccc3nc(-c4cc(C(C)(C)C)c(OCCCC(=O)NCCCN=[N+]=[N-])c(C(C)(C)C)c4)[nH]c3c2)CC1 [MIR96-IN-1]	-98.9	8.33
CC(C)(C)Sc1c(CC(C)(C)C(=O)O)n(Cc2ccc(Cl)cc2)c2ccc(OCc3ccc4ccccc4n3)cc12 [MK591]	-88.4	20.9
CC(C)c1ccc2c(c1)c(SC(C)(C)C)c(CC(C)(C)C(=O)[O-])n2Cc1ccc(Cl)cc1 [MK-886]	-83.3	20.9
C=CCn1c(=O)c2cnc(Nc3ccc(N4CCN(C)CC4)cc3)nc2n1-c1cccc(C(C)(C)O)n1 [MK-1775]	-73.8	0.742
NC1(CCC1)C2=CC=C(C=C2)C3=C(C=C/4C(=N3)\C=C/N5C(=O)N\N=C45)C6=CC=CC=C6 [MK-2206]	-122	16.6
CN(C[C@@H]1COCCO1)[S+]([O-])(=O)NC2=CC3=C(C=C2)\C=C/C4=C(C=C(C=N4)C5=C[N](C)N=C5)C3=O [MK-2461]	-103	18.6
O=C(O)C1(Cc2cccc(Nc3nccs3)n2)CCC(Oc2cccc(Cl)c2F)CC1 (centres undefined) [MK-5108]	-34.3	0.833
C[N]1C=C(C=N1)C2=CN=C3\C=C/C4=CC=C(C[S+]([O-])(=O)NCC5=NC=CC=C5)C=C4C(=O)C3=C2 [MK-8033]	-65.9	16.6
Cn1cc(-c2cnn3c(N)c(Br)c(C4CCCNC4)nc23)cn1 (centres undefined) [MK-8776]	-113	10.5
C[N]1C=C(C2=CC=CC=C12)/C3=C(/C(=O)NC3=O)C4=C[N](C)C5=CC(=CC=C45)[N+]([O-])=O [MKC-1]	-87.5	1.86
CCC1CCCCN1C(=O)n1ncc(C(O)(c2ccccc2)c2ccccc2)n1 (centres undefined) [ML226]	-62.9	11.8
CN(C(=O)CNC(=O)/C=C/c1cccc(Cl)c1)C1CC[S+](=O)([O-])CC1 (centres undefined) [ML264]	-92.4	0.742
Cc1cnc(-c2ccccc2C(C)C)nc1NCc1ccc(-n2ccnn2)cc1 [ML323]	-34.2	0.118
CN(C)CCCNC(=O)c1ccc(-c2cc(O)c3ncccc3c2)cc1 [ML324]	-86.4	14.8
O=C(NCCCNC(=O)c1cccnc1O)c1cc(-c2ccccc2)on1 [ML327]	-62.3	8.33
c1ccc(-c2ccc(CNc3nc(-c4ccccn4)nnc3-c3ccccc3)cc2)cc1 [ML-228]	-77	1.48
Cc1ccc([S+](=O)([O-])Nc2cc(C(F)(F)F)ccc2C(=O)Nc2nc(-c3ccccc3)cs2)cc1 [ML-364]	-87	4.17

SMILES	efficacy (HCT116 [1]) [%]	AC50 cell viability (HCT116 [2]) [µM]
O=C(CCNC(=O)c1ccc(OC(F)(F)F)cc1)N[C@@H]1CCCc2ccccc21 [ML-390]	-57.7	0.742
C[C@@H](NC(=O)c1ncnc(N)c1Cl)c1ncc(C(=O)Nc2cc(C(F)(F)F)c(Cl)cn2)s1 [MLN 2480]	-95.4	13.2
N[S+](=O)([O-])OC[C@@H]1C[C@@H](n2ccc3c(N[C@H]4CCc5ccccc54)ncnc32)C[C@@H]1O [MLN-4924]	-65.7	0.235
OC(=O)C1=CC=C(NC2=NC3=C(C\N=C(/C4=CC(=CC=C34)Cl)C5=C(F)C=CC=C5F)C=N2)C=C1 [MLN-8054]	-38.3	0.332
Cn1cc(-c2ccncc2)c(-c2ccc(OCc3ccc4ccccc4n3)cc2)n1 [MP-10]	-72.4	18.6
COc1cc(N2CCC(O)CC2)ccc1Nc1cc(Nc2ccccc2[S+](=O)([O-])C(C)C)c2cc[nH]c2n1 [MPS1-IN-1]	-73	3.72
COc1ccc([S+](=O)([O-])N2CCc3cccc(-c4ccncc4)c32)cc1 [MPT-0B098]	-61.1	0.417
COc1cc(C(=O)NC(=N)Nc2ccc(C)c(NC(=O)c3ccc(-c4ccccc4)cc3)c2)cc(OC)c1OC [MRT-83]	-47.2	7.42
COc1ccc([C@@H](O)[C@@H](C)Oc2ccc([C@H]3O[C@H](c4ccc(O[C@H](C)[C@H](O)c5ccc(OC)c(OC)c5)c(OC)c4)[C@H](C)[C@H]3C)cc2OC)cc1OC [Manassantin A]	-81	0.372
CNCCCC12CCC(c3ccccc31)c1ccccc12 [Maprotiline hydrochloride]	-93.9	20.9
CNC(=O)[C@@H](NC(=O)[C@H](CC(C)C)[C@H](O)C(=O)NO)C(C)(C)C [Marimastat]	-54.3	20.9
C[C@@]12OC(=O)[C@@]1(NC(=O)[C@@H]2CCCl)[C@@H](O)[C@H]\3CCC\C=C3 [Marizomib]	-92.6	0.118
CN(Cc1ccc(/C=C/C(=O)NO)cc1)CC12CC3CC(CC(C3)C1)C2 [Martinostat]	-89.7	0.263
Cc1ccc(NC(=O)c2ccc(CN3CCN(C)CC3)cc2)cc1Nc1nc(-c2cccnc2)cs1 [Masitinib]	-99.1	18.6
C[C@H](Cc1ccc(O)c(O)c1)[C@@H](C)Cc1ccc(O)c(O)c1 [Masoprocol]	-46.2	18.6
Cc1cccc(CN2CCN(C(c3ccccc3)c3ccc(Cl)cc3)CC2)c1 (centres undefined) [Meclizine hydrochloride]	-43.1	20.9
CCN(CC)CCNC(=O)c1ccc2nc(-c3ccccc3)c(-c3ccc(CN4CCC(n5c(=O)[nH]c6ccccc65)CC4)cc3)nc2c1 [Merck-22-6]	-99.8	8.33
C[N]1N=CC2=C1C=C(C(=C2)OC3=CC=C(NC(=O)\C4=C\C=C(\C)N(C4=O)C5=CC=C(F)C=C5)C=C3F)C6=C[NH]N=C6 [Merestinib]	-41.2	3.32
CN(Cc1cnc2nc(N)nc(N)c2n1)c1ccc(C(=O)N[C@@H](CCC(=O)O)C(=O)O)cc1 [Methotrexate]	-84.4	0.118
